Source: patent US20200131669A1, “CYCLIC PEPTIDE COMPOUND HAVING HIGH MEMBRANE PERMEABILITY, AND LIBRARY CONTAINING SAME” (Chugai Seiyaku Kabushiki Kaisha, priority 2017, published 2020)
Where two headings read alike, the source gives them in different places. Starred links: 1 amine or outer side, 2 acyl side, 3 side chain; linkers in the order of their positions; H or OH if unused. Positions of bridges follow the written chain, without caps; N, C: chain ends. Non-standard residues stand in square brackets, D forms with d. Residues, ends and D or L forms follow the SMILES beside them. *: point of attachment. NMeAbu(4-morpholino) = CN[C@@H](CCN1CCOCC1)C(=O)O; NMePhe(3-Cl) = CN[C@@H](Cc1cccc(Cl)c1)C(=O)O; X15 = CN([C@H](CCN1CCOCC1)C(=O)[*:2])[*:1]; X8 = O=C(CN(CCN1CCC(F)(F)CC1)[*:1])[*:2]; NMehPhe = CN[C@@H](CCc1ccccc1)C(=O)O; X3 = O=C([C@H](CCCCO)N[*:1])[*:2]; NMeF = CN[C@@H](Cc1ccccc1)C(=O)O; NMeGABA = CN(CCCC(=O)[*:2])[*:1]; Butyl(3-Me,3-OH) = CC(C)(O)CC*; CH2CONHtBu = CC(C)(C)NC(=O)C*; NMeL = CN[C@@H](CC(C)C)C(=O)O; NMeV = CN[C@H](C(=O)O)C(C)C; NMeA = CN[C@@H](C)C(=O)O; Piperidide = C1CCN(*)CC1; NBuGly = CCCCNCC(=O)O; NPrGly = CCCNCC(=O)O; Sar = CNCC(=O)O; tBu = CC(C)(C)*

Assay: Caco-2 membrane permeability, improved method as used in the following Examples (96-well, 20 to 24 h preincubation)
Format: in vitro ADME
Settings: for Papp A→B at 180 min: human
Summary of the method: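 Papp (cm/sec) was derived from LC/MS of basal samples collected 180 min after apical dosing in FaSSIF/HBSS pH 6.0 with 1% DMSO, against a basal HBSS pH 7.4 receiver containing 4% BSA. Three-week Caco-2 cultures were first preincubated with compound in DMEM+FaSSIF at 37 °C for 20–24 h.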

Row | SMILES | Papp A→B at 180 min (Caco-2, Caco-2) [×10⁻⁶ cm/s] | further results
1 | CC[C@H](C)[C@@H]1NC(=O)[C@H](C(C)C)N(C)C(=O)CCCN(C)C(=O)C[C@@H](C(=O)N2CCCCC2)NC(=O)[C@H](CC(C)C)N(C)C(=O)[C@H](CC(C)C)N(C)C(=O)[C@H]([C@@H](C)O)NC(=O)[C@H](CC(C)C)N(C)C(=O)[C@H](COCCC(C)(C)O)NC(=O)[C@H](Cc2cccc(Cl)c2)N(C)C(=O)[C@H](Cc2ccccc2)N(C)C1=O [pd435] ([NMeGABA][NMeV]I[NMeF][NMePhe(3-Cl)]S(Butyl(3-Me,3-OH))[NMeL]T[NMeL][NMeL]D-Piperidide; lactam N-11) | 1.4 | –
2 | CC(C)C[C@@H]1NC(=O)[C@H](Cc2ccccc2)N(C)C(=O)[C@H](CC(C)C)N(C)C(=O)[C@H](COCCC(C)(C)O)NC(=O)[C@H](C)N(C)C(=O)C[C@@H](C(=O)N2CCCCC2)NC(=O)[C@H](CC(C)C)N(C)C(=O)CN(C)C(=O)[C@H]([C@@H](C)O)NC(=O)[C@H](CC(C)C)N(C)C(=O)[C@H](CCc2ccccc2)N(C)C1=O [pd436] ([NMeA]S(Butyl(3-Me,3-OH))[NMeL][NMeF]L[NMehPhe][NMeL]T[Sar][NMeL]D-Piperidide; lactam N-11) | 1.3 | –
3 | CC(C)C[C@@H]1NC(=O)[C@H](C)N(C)C(=O)C[C@@H](C(=O)N2CCCCC2)NC(=O)[C@H](CC(C)C)N(C)C(=O)CN(C)C(=O)[C@H]([C@@H](C)O)NC(=O)[C@H](CC(C)C)N(C)C(=O)[C@H](CCc2ccccc2)N(C)C(=O)[C@H](COCCC(C)(C)O)NC(=O)[C@H](Cc2ccccc2)N(C)C(=O)[C@H](CC(C)C)N(C)C1=O [pd437] ([NMeA]L[NMeL][NMeF]S(Butyl(3-Me,3-OH))[NMehPhe][NMeL]T[Sar][NMeL]D-Piperidide; lactam N-11) | 1.3 | –
4 | CC(C)C[C@@H]1NC(=O)[C@H](CCc2ccccc2)N(C)C(=O)[C@@H](C(C)C)NC(=O)C[C@@H](C(=O)N2CCCCC2)NC(=O)[C@H](CC(C)C)N(C)C(=O)[C@H](Cc2ccccc2)N(C)C(=O)[C@H](COCCC(C)(C)O)NC(=O)[C@H](CC(C)C)N(C)C(=O)CN(C)C(=O)[C@H]([C@@H](C)O)NC(=O)[C@H](CC(C)C)N(C)C1=O [pd438] ([dV][NMehPhe]L[NMeL]T[Sar][NMeL]S(Butyl(3-Me,3-OH))[NMeF][NMeL]D-Piperidide; lactam N-11) | – | Papp A→B (Caco-2, Caco-2): 1 ×10⁻⁶ cm/s
5 | CC(C)C[C@@H]1NC(=O)[C@H](CC(C)C)N(C)C(=O)C[C@@H](C(=O)N2CCCCC2)NC(=O)[C@H](CC(C)C)N(C)C(=O)CN(C)C(=O)[C@H](CCC(=O)N(C)C)NC(=O)[C@H](CC(C)C)N(C)C(=O)[C@H](Cc2ccccc2)N(C)C(=O)[C@H](CC(C)C)NC(=O)[C@H](Cc2ccccc2)N(C)C(=O)[C@H](CC(C)C)N(C)C1=O [pd439] ([NMeL]L[NMeL][NMeF]L[NMeF][NMeL]E(NMe2)[Sar][NMeL]D-Piperidide; lactam N-11) | – | Papp A→B (Caco-2, Caco-2): 1 ×10⁻⁶ cm/s
6 | CC(C)C[C@@H]1NC(=O)[C@H](Cc2ccccc2)N(C)C(=O)[C@H](C)N(C)C(=O)C[C@@H](C(=O)N2CCCCC2)NC(=O)[C@H](CC(C)C)N(C)C(=O)[C@H](CC(C)C)N(C)C(=O)[C@H](COC(C)(C)C)NC(=O)[C@H](CC(C)C)N(C)C(=O)[C@H](C)N(C)C(=O)[C@H](CCC(=O)N(C)C)NC(=O)[C@H](CC(C)C)N(C)C1=O [pd440] ([NMeA][NMeF]L[NMeL]E(NMe2)[NMeA][NMeL]S(tBu)[NMeL][NMeL]D-Piperidide; lactam N-11) | 4 | –
7 | CC(C)C[C@@H]1NC(=O)[C@H](Cc2ccccc2)N(C)C(=O)[C@@H](CC(C)C)NC(=O)C[C@@H](C(=O)N2CCCCC2)NC(=O)[C@H](CC(C)C)N(C)C(=O)[C@H](Cc2ccccc2)N(C)C(=O)[C@H](COC(C)(C)C)NC(=O)[C@H](CC(C)C)N(C)C(=O)CN(C)C(=O)[C@H](CCC(=O)N(C)C)NC(=O)[C@H](CC(C)C)N(C)C1=O [pd441] ([dL][NMeF]L[NMeL]E(NMe2)[Sar][NMeL]S(tBu)[NMeF][NMeL]D-Piperidide; lactam N-11) | 1.7 | –
8 | CCCCN1CC(=O)N(C)[C@@H](Cc2ccccc2)C(=O)N[C@@H]([C@@H](C)CC)C(=O)N(C)[C@@H](CC(C)C)C(=O)N[C@@H]([C@@H](C)O)C(=O)N(CCC)CC(=O)N(C)[C@@H](Cc2ccccc2)C(=O)N(C)[C@@H](CC(C)C)C(=O)N[C@@H](COCC(=O)NC(C)(C)C)C(=O)N(C)[C@@H](C)C(=O)N[C@H](C(=O)N2CCCCC2)CC1=O [pd443] ([NBuGly][NMeF]I[NMeL]T[NPrGly][NMeF][NMeL]S(CH2CONHtBu)[NMeA]D-Piperidide; lactam N-11) | 1 | –
9 | CC(C)C[C@H]1C(=O)N[C@@H](C(C)C)C(=O)N(C)[C@@H](Cc2ccccc2)C(=O)N(C)[C@@H](Cc2ccccc2)C(=O)N[C@@H](COC(C)(C)C)C(=O)N(C)[C@@H](CC(C)C)C(=O)N[C@@H](CCCCO)C(=O)N(C)[C@@H](CC(C)C)C(=O)N(C)[C@@H](CC(C)C)C(=O)N[C@H](C(=O)N2CCCCC2)CC(=O)N(C)CCCC(=O)N1C [pd446] ([NMeGABA][NMeL]V[NMeF][NMeF]S(tBu)[NMeL][X3][NMeL][NMeL]D-Piperidide; lactam N-11) | – | Papp A→B at 180 min (Papp, Caco-2 membrane permeability, improved method, read-out: Caco-2): 1.3 ×10⁻⁶ cm/s
10 | CC(C)C[C@H]1C(=O)N[C@H](C(=O)N2CCCCC2)CC(=O)N(C)[C@@H](C)C(=O)N[C@@H](C(C)C)C(=O)N(C)[C@@H](CC(C)C)C(=O)N(C)[C@@H](Cc2ccccc2)C(=O)N[C@@H](C(C)C)C(=O)N(C)[C@@H](Cc2ccccc2)C(=O)N(C)[C@@H](CC(C)C)C(=O)N[C@@H](CCCCO)C(=O)N(C)CC(=O)N1C [pd448] ([NMeA]V[NMeL][NMeF]V[NMeF][NMeL][X3][Sar][NMeL]D-Piperidide; lactam N-11) | 1.3 | –
11 | CC(C)C[C@@H]1NC(=O)[C@H](Cc2ccccc2)N(C)C(=O)[C@@H](CC(C)C)NC(=O)C[C@@H](C(=O)N2CCCCC2)NC(=O)[C@H](C(C)C)N(C)C(=O)[C@H](Cc2ccccc2)N(C)C(=O)[C@H](COC(C)(C)C)NC(=O)[C@H](CC(C)C)N(C)C(=O)CN(C)C(=O)[C@H](CCCCO)NC(=O)[C@H](CC(C)C)N(C)C1=O [pd449] ([dL][NMeF]L[NMeL][X3][Sar][NMeL]S(tBu)[NMeF][NMeV]D-Piperidide; lactam N-11) | 2 | –
12 | CC(C)C[C@@H]1NC(=O)[C@H](Cc2ccccc2)N(C)C(=O)[C@@H](C(C)C)NC(=O)C[C@@H](C(=O)N2CCCCC2)NC(=O)[C@H](C(C)C)N(C)C(=O)[C@H](Cc2ccccc2)N(C)C(=O)[C@H](COC(C)(C)C)NC(=O)[C@H](CC(C)C)N(C)C(=O)CN(C)C(=O)[C@H](CCCCO)NC(=O)[C@H](CC(C)C)N(C)C1=O [pd450] ([dV][NMeF]L[NMeL][X3][Sar][NMeL]S(tBu)[NMeF][NMeV]D-Piperidide; lactam N-11) | 1.8 | –
13 | CC(C)C[C@@H]1NC(=O)[C@H](C)N(C)C(=O)C[C@@H](C(=O)N2CCCCC2)NC(=O)[C@H](CC(C)C)N(C)C(=O)CN(C)C(=O)[C@H](CCCCO)NC(=O)[C@H](CC(C)C)N(C)C(=O)[C@H](Cc2ccccc2)N(C)C(=O)[C@H](CC(C)C)NC(=O)[C@H](Cc2ccccc2)N(C)C(=O)[C@H](CC(C)C)N(C)C1=O [pd451] ([NMeA]L[NMeL][NMeF]L[NMeF][NMeL][X3][Sar][NMeL]D-Piperidide; lactam N-11) | 4.1 | –
14 | CCCCN1CC(=O)N(C)[C@@H](CC(C)C)C(=O)N[C@@H](COC(C)(C)C)C(=O)N(C)[C@@H](Cc2ccccc2)C(=O)N(C)[C@@H](C(C)C)C(=O)N[C@H](C(=O)N2CCCCC2)CC(=O)N[C@H](CC(C)C)C(=O)N(C)[C@@H](Cc2ccccc2)C(=O)N[C@@H](CC(C)C)C(=O)N(C)[C@@H](CCN2CCOCC2)C(=O)N[C@@H]([C@@H](C)O)C1=O [pd452] ([dL][NMeF]L[NMeAbu(4-morpholino)]T[NBuGly][NMeL]S(tBu)[NMeF][NMeV]D-Piperidide; lactam N-11) | 1.3 | –
15 | CCCCN1CC(=O)N(C)[C@@H](C(C)C)C(=O)N[C@H](C(=O)N2CCCCC2)CC(=O)N(C)[C@@H](C)C(=O)N[C@@H](CC(C)C)C(=O)N(C)[C@@H](CC(C)C)C(=O)N(C)[C@@H](Cc2ccccc2)C(=O)N[C@@H](CC(C)C)C(=O)N(C)[C@@H](Cc2ccccc2)C(=O)N(C)[C@@H](CCN2CCOCC2)C(=O)N[C@@H]([C@@H](C)O)C1=O [pd453] ([NMeA]L[NMeL][NMeF]L[NMeF][NMeAbu(4-morpholino)]T[NBuGly][NMeV]D-Piperidide; lactam N-11) | 2.3 | –
16 | CCCCN1CC(=O)N(C)[C@H](CCN2CCOCC2)C(=O)N[C@H](C(=O)N2CCCCC2)CC(=O)N(C)[C@@H](C)C(=O)N[C@@H](CC(C)C)C(=O)N(C)[C@@H](CC(C)C)C(=O)N(C)[C@@H](Cc2ccccc2)C(=O)N[C@@H](CC(C)C)C(=O)N(C)[C@@H](Cc2ccccc2)C(=O)N(C)[C@@H](CC(C)C)C(=O)N[C@@H]([C@@H](C)O)C1=O [pd454] ([NMeA]L[NMeL][NMeF]L[NMeF][NMeL]T[NBuGly][X15]D-Piperidide; lactam N-11) | 1.2 | –
17 | CC(C)C[C@@H]1NC(=O)[C@H](Cc2ccccc2)N(C)C(=O)[C@H](CC(C)C)N(C)C(=O)[C@H](CC(C)C)NC(=O)[C@H](C)N(C)C(=O)C[C@@H](C(=O)N2CCCCC2)NC(=O)[C@H](CC(C)C)N(C)C(=O)CN(C)C(=O)[C@H]([C@@H](C)O)NC(=O)CN(CCN2CCC(F)(F)CC2)C(=O)[C@H](Cc2ccccc2)N(C)C1=O [pd456] ([NMeA]L[NMeL][NMeF]L[NMeF][X8]T[Sar][NMeL]D-Piperidide; lactam N-11) | 5 | –
